“Also recorded” adds a separate entry of the source. Where two headings read alike, the source gives them in different places. Non-standard residues stand in square brackets, D forms with d. No end group written: not given here. aminoindane‑type D2R agonist pharmacophore = not defined here; N(4-hydroxyphenethyl)Gly = O=C(O)CNCCc1ccc(O)cc1; biphenyltriazole = not defined here
Key:
hD4.4R = target: T1, hD4.4R (Homo sapiens, UniProt P21917); experiment: [3H]spiperone displacement, membranes from CHO cells stably expressing hD4.4R; format: binding
T1 construct: expressed in transfected cells
T1 sequence (P21917 1-419): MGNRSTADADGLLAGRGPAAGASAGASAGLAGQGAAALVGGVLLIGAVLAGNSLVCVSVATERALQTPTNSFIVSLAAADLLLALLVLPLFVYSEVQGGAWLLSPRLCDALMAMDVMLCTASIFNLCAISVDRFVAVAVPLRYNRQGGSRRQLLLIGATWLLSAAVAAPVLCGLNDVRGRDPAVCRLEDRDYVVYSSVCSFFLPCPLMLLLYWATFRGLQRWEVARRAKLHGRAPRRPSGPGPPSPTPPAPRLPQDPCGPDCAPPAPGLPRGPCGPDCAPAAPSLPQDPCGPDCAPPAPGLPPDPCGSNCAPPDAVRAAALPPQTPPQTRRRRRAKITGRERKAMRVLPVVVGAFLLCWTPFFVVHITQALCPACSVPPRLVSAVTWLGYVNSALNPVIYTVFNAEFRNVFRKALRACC

D2LR/NTS1R = D2LR/NTS1R (Homo sapiens, UniProt P14416+P30989); experiment: [3H]spiperone displacement, membranes from HEK 293 T cells coexpressing D2LR and NTS1R; details: D2LR:NTS1R 1:2; mean ± s.e.m.
D2R = target: T2, D2R (Homo sapiens, UniProt P14416); experiment: Antagonist effect on quinpirole-mediated inhibition of cAMP accumulation, HEK 293T cells expressing D2R; format: cell-based
T2 construct: expressed in transfected cells; host or cells: HEK 293 T

hD3R = target: T3, hD3R (Homo sapiens, UniProt P35462); experiment: [3H]spiperone displacement, membranes from CHO cells stably expressing hD3R; format: binding
T3 construct: expressed in transfected cells

D2R_D80A/NTS1R = target: T4, D2R_D80A/NTS1R (Homo sapiens, UniProt P14416+P30989, D80A); experiment: β-arrestin-2 recruitment (DiscoveRx PathHunter), ProLink-tagged signalling incompetent D2R_D80A coexpressed with NTS1R; format: cell-based
T4 construct: host or cells: HEK 293 stably expressing EA-tagged β-arrestin-2

D2SR = target: T5, D2SR (Homo sapiens, UniProt P14416); experiment: cAMP BRET assay (CAMYEL biosensor), HEK 293 T cells expressing D2SR; format: cell-based; details: 10 μM forskolin
T5 construct: expressed in transfected cells; host or cells: HEK 293 T

hNTS2R = target: T6, hNTS2R (Homo sapiens, UniProt O95665); experiment: [3H]NT(8-13) displacement, homogenates from transiently transfected HEK 293T cells, human NTS2R; format: binding
T6 construct: host or cells: HEK 293T

[1] = target: porcine striatal membranes (D2LR, NTS1R); experiment: [3H]spiperone displacement, porcine striatal membranes; format: binding; details: porcine striatum
[2] = target: T7, D2R/NTS1R heterodimer (D2LR and NTS1R coexpressed in HEK 293 T membranes), P14416; experiment: +1 uM NT(8-13); details: N-homotyrosine (NhTyr) in place of tyrosine
[3] = target: T7, D2R/NTS1R heterodimer (D2LR and NTS1R …); experiment: monophasic; details: N-homotyrosine (NhTyr) in place of tyrosine; N-terminus carries a 22-atom polyethylene glycol-based spacer, a biphenyltriazole moiety and a 2-methoxyphenylpiperazine D2R antagonist pharmacophore

T7 sequence (P14416 whole entry, chain 1 of 2): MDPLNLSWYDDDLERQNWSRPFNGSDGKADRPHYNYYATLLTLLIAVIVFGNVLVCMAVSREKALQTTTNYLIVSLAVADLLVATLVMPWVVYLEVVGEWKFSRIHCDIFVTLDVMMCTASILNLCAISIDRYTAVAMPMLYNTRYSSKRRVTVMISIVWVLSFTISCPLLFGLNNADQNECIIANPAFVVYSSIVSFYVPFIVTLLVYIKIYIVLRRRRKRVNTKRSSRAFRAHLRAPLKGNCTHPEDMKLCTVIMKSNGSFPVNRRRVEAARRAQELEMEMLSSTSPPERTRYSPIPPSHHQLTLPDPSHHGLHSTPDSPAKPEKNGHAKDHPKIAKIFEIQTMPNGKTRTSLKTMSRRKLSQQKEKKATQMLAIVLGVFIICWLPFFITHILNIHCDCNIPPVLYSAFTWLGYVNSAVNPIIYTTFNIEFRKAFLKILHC
T7 sequence (P30989 whole entry, chain 2 of 2, further chain): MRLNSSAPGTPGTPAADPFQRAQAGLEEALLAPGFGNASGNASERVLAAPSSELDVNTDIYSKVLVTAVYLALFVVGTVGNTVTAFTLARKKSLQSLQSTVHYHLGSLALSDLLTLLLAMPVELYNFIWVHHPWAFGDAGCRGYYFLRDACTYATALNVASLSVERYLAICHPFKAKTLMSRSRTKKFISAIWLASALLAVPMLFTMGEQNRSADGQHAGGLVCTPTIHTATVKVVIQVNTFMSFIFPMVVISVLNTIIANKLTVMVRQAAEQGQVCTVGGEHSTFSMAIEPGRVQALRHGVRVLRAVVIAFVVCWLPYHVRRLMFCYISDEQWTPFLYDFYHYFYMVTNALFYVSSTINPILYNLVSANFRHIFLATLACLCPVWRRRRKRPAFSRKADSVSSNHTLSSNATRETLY
Chain of D2LR/NTS1R (P14416 whole entry): as the sequence (P14416 whole entry, chain 1 of 2) above
Chain of D2LR/NTS1R (P30989 whole entry): as the sequence (P30989 whole entry, chain 2 of 2, further chain) above
T2 sequence (P14416 1-414 isoform P14416-2): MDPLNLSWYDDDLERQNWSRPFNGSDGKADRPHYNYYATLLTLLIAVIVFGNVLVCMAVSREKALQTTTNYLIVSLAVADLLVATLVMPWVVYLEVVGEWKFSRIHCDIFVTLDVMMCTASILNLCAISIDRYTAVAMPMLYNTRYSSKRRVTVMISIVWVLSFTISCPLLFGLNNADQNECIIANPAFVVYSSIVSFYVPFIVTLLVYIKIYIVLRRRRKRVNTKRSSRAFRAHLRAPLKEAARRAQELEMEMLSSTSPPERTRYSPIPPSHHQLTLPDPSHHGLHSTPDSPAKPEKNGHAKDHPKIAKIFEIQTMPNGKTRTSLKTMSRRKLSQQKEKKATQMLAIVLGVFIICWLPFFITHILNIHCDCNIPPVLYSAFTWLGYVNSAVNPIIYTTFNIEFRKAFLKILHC
T3 sequence (P35462 whole entry): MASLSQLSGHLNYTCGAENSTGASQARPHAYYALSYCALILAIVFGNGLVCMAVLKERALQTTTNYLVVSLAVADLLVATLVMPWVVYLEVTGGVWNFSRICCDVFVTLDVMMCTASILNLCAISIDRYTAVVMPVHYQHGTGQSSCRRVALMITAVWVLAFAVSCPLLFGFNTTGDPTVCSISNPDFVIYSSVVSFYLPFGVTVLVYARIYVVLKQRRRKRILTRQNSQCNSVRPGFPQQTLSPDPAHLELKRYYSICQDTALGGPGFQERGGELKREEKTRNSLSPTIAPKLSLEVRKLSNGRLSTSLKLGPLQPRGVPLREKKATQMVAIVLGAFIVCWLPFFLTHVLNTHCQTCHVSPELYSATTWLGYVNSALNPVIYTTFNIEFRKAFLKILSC
T5 sequence (P14416 1-414 isoform P14416-2): as the sequence (P14416 1-414 isoform P14416-2) above
T6 sequence (O95665 whole entry): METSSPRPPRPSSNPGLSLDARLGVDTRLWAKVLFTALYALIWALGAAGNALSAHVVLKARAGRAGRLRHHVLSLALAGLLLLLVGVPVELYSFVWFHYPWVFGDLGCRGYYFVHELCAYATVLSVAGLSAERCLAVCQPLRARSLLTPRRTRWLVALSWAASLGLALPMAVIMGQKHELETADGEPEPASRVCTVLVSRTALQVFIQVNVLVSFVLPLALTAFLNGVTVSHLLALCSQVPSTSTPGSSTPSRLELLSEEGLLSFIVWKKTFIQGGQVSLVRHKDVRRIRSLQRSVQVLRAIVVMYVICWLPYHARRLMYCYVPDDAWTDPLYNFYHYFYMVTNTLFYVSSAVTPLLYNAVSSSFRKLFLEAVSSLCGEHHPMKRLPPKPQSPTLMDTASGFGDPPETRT
T4 sequence (P14416 1-414 isoform P14416-2 D80A): as the sequence (P14416 1-414 isoform P14416-2) above, with D80A counted along it
T4 sequence (P30989 whole entry): as the sequence (P30989 whole entry, chain 2 of 2, further chain) above

## CCc1cc(Cl)c(OC)c(C(=O)NC[C@@H]2C[C@@H](OCCCCc3cn(-c4ccc(-c5ccc(C(=O)NCCOCCOCCOCCOCCOCCOCCC(=O)N[C@@H](CCCNC(=N)N)C(=O)N[C@@H](CCCNC(=N)N)C(=O)N6CCC[C@H]6C(=O)N[C@@H](Cc6ccc(O)cc6)C(=O)N[C@H](C(=O)N[C@@H](CC(C)C)C(=O)O)[C@@H](C)CC)cc5)cc4)nn3)CN2CC)c1O [1a]
hD4.4R
  Ki: 470 ± 420 nM

## CCc1cc(Cl)c(OC)c(C(=O)NC[C@@H]2C[C@@H](OCCCCc3cn(-c4ccc(-c5ccc(C(=O)NCCOCCOCCOCCOCCOCCOCCC(=O)NCCOCCOCCOCCOCCOCCOCCC(=O)N[C@@H](CCCNC(=N)N)C(=O)N[C@@H](CCCNC(=N)N)C(=O)N6CCC[C@H]6C(=O)N[C@@H](Cc6ccc(O)cc6)C(=O)N[C@H](C(=O)N[C@@H](CC(C)C)C(=O)O)[C@@H](C)CC)cc5)cc4)nn3)CN2CC)c1O [1b]
D2LR/NTS1R
  Fraction high (fraction representing the high-affinity binding site): 31 ± 6%
hD4.4R
  Ki: 850 ± 750 nM
D2R; 10 nM quinpirole
  antagonist behaviour at D2R (in words): inverse agonists; also recorded: inverse agonist effect
  decrease of the basal response (inverse agonist effect on basal cAMP level): 32%

## CCc1cc(Cl)c(OC)c(C(=O)NC[C@@H]2C[C@@H](OCCCCc3cn(-c4ccc(-c5ccc(C(=O)NCCOCCOCCOCCOCCOCCOCCC(=O)NCCOCCOCCOCCOCCOCCOCCC(=O)NCCOCCOCCOCCOCCOCCOCCC(=O)N[C@@H](CCCNC(=N)N)C(=O)N[C@@H](CCCNC(=N)N)C(=O)N6CCC[C@H]6C(=O)N[C@@H](Cc6ccc(O)cc6)C(=O)N[C@H](C(=O)N[C@@H](CC(C)C)C(=O)O)[C@@H](C)CC)cc5)cc4)nn3)CN2CC)c1O [1c]
D2LR/NTS1R
  Fraction high (fraction representing the high-affinity binding site): 66 ± 5%
hD4.4R
  Ki: 420 ± 100 nM

## CCc1cc(Cl)c(OC)c(C(=O)NC[C@@H]2C[C@@H](OCCCCc3cn(-c4ccc(-c5ccc(C(=O)NCCOCCOCCOCCOCCOCCOCCC(=O)NCCOCCOCCOCCOCCOCCOCCC(=O)NCCOCCOCCOCCOCCOCCOCCC(=O)NCCOCCOCCOCCOCCOCCOCCC(=O)N[C@@H](CCCNC(=N)N)C(=O)N[C@@H](CCCNC(=N)N)C(=O)N6CCC[C@H]6C(=O)N[C@@H](Cc6ccc(O)cc6)C(=O)N[C@H](C(=O)N[C@@H](CC(C)C)C(=O)O)[C@@H](C)CC)cc5)cc4)nn3)CN2CC)c1O [1d]
D2LR/NTS1R
  Fraction high (fraction representing the high-affinity binding site): 51 ± 5%
hD3R
  Ki: 1.6 ± 0.4 nM
hD4.4R
  Ki: 440 ± 190 nM

## CC[C@H](C)[C@H](NC(=O)[C@H](Cc1ccc(O)cc1)NC(=O)[C@@H]1CCCN1C(=O)[C@H](CCCNC(=N)N)NC(=O)[C@H](CCCNC(=N)N)NC(=O)CCOCCOCCOCCOCCOCCOCCNC(=O)c1ccc(-c2ccc(-n3cc(CCCCN4CCN(c5ccccc5OC)CC4)nn3)cc2)cc1)C(=O)N[C@@H](CC(C)C)C(=O)O [2a]
hD3R
  Ki: 2.7 ± 0.1 nM
hD4.4R
  Ki: 62 ± 4 nM

## CC[C@H](C)[C@H](NC(=O)[C@H](Cc1ccc(O)cc1)NC(=O)[C@@H]1CCCN1C(=O)[C@H](CCCNC(=N)N)NC(=O)[C@H](CCCNC(=N)N)NC(=O)CCOCCOCCOCCOCCOCCOCCNC(=O)CCOCCOCCOCCOCCOCCOCCNC(=O)CCOCCOCCOCCOCCOCCOCCNC(=O)c1ccc(-c2ccc(-n3cc(CCCCN4CCN(c5ccccc5OC)CC4)nn3)cc2)cc1)C(=O)N[C@@H](CC(C)C)C(=O)O [2c]
D2LR/NTS1R
  Fraction high (fraction representing the high-affinity binding site): 61 ± 2%
D2R_D80A/NTS1R
  concentration of maximum effect (bell-shaped curve), D2R_D80A/NTS1R: 300 nM
hD4.4R
  Ki: 430 ± 220 nM
D2SR
  effect on forskolin-induced cAMP accumulation, cells expressing D2R only (in words): only weakly activates D2R

## CC[C@H](C)[C@H](NC(=O)[C@H](Cc1ccc(O)cc1)NC(=O)[C@@H]1CCCN1C(=O)[C@H](CCCNC(=N)N)NC(=O)[C@H](CCCNC(=N)N)NC(=O)CCOCCOCCOCCOCCOCCOCCNC(=O)CCOCCOCCOCCOCCOCCOCCNC(=O)CCOCCOCCOCCOCCOCCOCCNC(=O)CCOCCOCCOCCOCCOCCOCCNC(=O)c1ccc(-c2ccc(-n3cc(CCCCN4CCN(c5ccccc5OC)CC4)nn3)cc2)cc1)C(=O)N[C@@H](CC(C)C)C(=O)O [2d]
D2LR/NTS1R
  Fraction high (fraction representing the high-affinity binding site): 62 ± 3%
hD4.4R
  Ki: 370 ± 50 nM

## CC[C@H](C)[C@H](NC(=O)CN(CCc1ccc(O)cc1)C(=O)[C@@H]1CCCN1C(=O)[C@H](CCCNC(=N)N)NC(=O)[C@H](CCCNC(=N)N)NC(=O)CCOCCOCCOCCOCCOCCOCCNC(=O)c1ccc(-c2ccc(-n3cc(CCCCN4CCN(c5ccccc5OC)CC4)nn3)cc2)cc1)C(=O)N[C@@H](CC(C)C)C(=O)O [2e]
hD3R
  Ki: 5.8 ± 1.3 nM
hNTS2R
  Ki: 20 nM

## CC[C@H](C)[C@H](NC(=O)CN(CCc1ccc(O)cc1)C(=O)[C@@H]1CCCN1C(=O)[C@H](CCCNC(=N)N)NC(=O)[C@H](CCCNC(=N)N)NC(=O)CCOCCOCCOCCOCCOCCOCCNC(=O)CCOCCOCCOCCOCCOCCOCCNC(=O)c1ccc(-c2ccc(-n3cc(CCCCN4CCN(c5ccccc5OC)CC4)nn3)cc2)cc1)C(=O)N[C@@H](CC(C)C)C(=O)O [2f]
hD4.4R
  Ki: 260 ± 170 nM

## CCCN(CCCCc1cn(-c2ccc(-c3ccc(C(=O)NCCOCCOCCOCCOCCOCCOCCC(=O)N[C@@H](CCCNC(=N)N)C(=O)N[C@@H](CCCNC(=N)N)C(=O)N4CCC[C@H]4C(=O)N[C@@H](Cc4ccc(O)cc4)C(=O)N[C@H](C(=O)N[C@@H](CC(C)C)C(=O)O)[C@@H](C)CC)cc3)cc2)nn1)C1Cc2ccccc2C1 [3a]
hD4.4R
  Ki: 25 ± 10 nM

## CCCN(CCCCc1cn(-c2ccc(-c3ccc(C(=O)NCCOCCOCCOCCOCCOCCOCCC(=O)NCCOCCOCCOCCOCCOCCOCCC(=O)NCCOCCOCCOCCOCCOCCOCCC(=O)N[C@@H](CCCNC(=N)N)C(=O)N[C@@H](CCCNC(=N)N)C(=O)N4CCC[C@H]4C(=O)N[C@@H](Cc4ccc(O)cc4)C(=O)N[C@H](C(=O)N[C@@H](CC(C)C)C(=O)O)[C@@H](C)CC)cc3)cc2)nn1)C1Cc2ccccc2C1 [3c]
D2LR/NTS1R
  Fraction high (fraction representing the high-affinity binding site): 50 ± 4%
hD4.4R
  Ki: 80 ± 26 nM
D2SR
  effect on forskolin-induced cAMP accumulation, cells expressing D2R only (in words): stimulates D2R similar to quinpirole

## CCCN(CCCCc1cn(-c2ccc(-c3ccc(C(=O)NCCOCCOCCOCCOCCOCCOCCC(=O)NCCOCCOCCOCCOCCOCCOCCC(=O)NCCOCCOCCOCCOCCOCCOCCC(=O)NCCOCCOCCOCCOCCOCCOCCC(=O)N[C@@H](CCCNC(=N)N)C(=O)N[C@@H](CCCNC(=N)N)C(=O)N4CCC[C@H]4C(=O)N[C@@H](Cc4ccc(O)cc4)C(=O)N[C@H](C(=O)N[C@@H](CC(C)C)C(=O)O)[C@@H](C)CC)cc3)cc2)nn1)C1Cc2ccccc2C1 [3d]
D2LR/NTS1R
  Fraction high (fraction representing the high-affinity binding site): 53 ± 6%
hD4.4R
  Ki: 180 ± 40 nM

## CCCN(CCCCc1cn(-c2ccc(-c3ccc(C(=O)NCCOCCOCCOCCOCCOCCOCCC(=O)NCCOCCOCCOCCOCCOCCOCCC(=O)N[C@@H](CCCNC(=N)N)C(=O)N[C@@H](CCCNC(=N)N)C(=O)N4CCC[C@H]4C(=O)N(CCc4ccc(O)cc4)CC(=O)N[C@H](C(=O)N[C@@H](CC(C)C)C(=O)O)[C@@H](C)CC)cc3)cc2)nn1)C1Cc2ccccc2C1 [3f]
hD3R
  Ki: 1.1 ± 0.1 nM
hD4.4R
  Ki: 71 ± 4 nM
[1]; read-out: Ki (monophasic), striatal membranes, absence of NT(8-13)
  Ki: 28 ± 16 nM
[1]; read-out: Ki in the presence of […] μM NT(8-13), striatal membranes, monophasic
  Ki: 29 ± 5 nM
hNTS2R
  Ki: 20 nM

## CCc1cc(Cl)c(OC)c(C(=O)NC[C@@H]2CCCN2CC)c1O [eticlopride, reference compound]
D2R
  IC50: 3.1 nM
  antagonist behaviour at D2R (in words): inverse agonists; also recorded: inverse agonist effect
  decrease of the basal response (inverse agonist effect on basal cAMP level): 22%

## {2‑methoxyphenylpiperazine D2R antagonist pharmacophore-biphenyltriazole-PEG spacer 44‑atom}-RRP[N(4-hydroxyphenethyl)Gly]IL (reading uncertain) [bivalent control compound 2f]
[2]; N-terminus carries a 44-atom polyethylene glycol-based spacer, a biphenyltriazole moiety and a 2-methoxyphenylpiperazine D2R antagonist pharmacophore
  Ki: 200 nM

## {2‑methoxyphenylpiperazine D2R antagonist pharmacophore-biphenyltriazole-PEG spacer 22‑atom}-RRP[N(4-hydroxyphenethyl)Gly]IL (reading uncertain) [bivalent control compound 2e]
[2]; N-terminus carries a 22-atom polyethylene glycol-based spacer, a biphenyltriazole moiety and a 2-methoxyphenylpiperazine D2R antagonist pharmacophore
  Ki: 96 nM
[3]
  Ki: 30 nM

## {aminoindane‑type D2R agonist pharmacophore-biphenyltriazole-PEG spacer 22‑atom}-RRP[N(4-hydroxyphenethyl)Gly]IL (reading uncertain) [bivalent control compound 3e]
[2]; N-terminus carries a 22-atom polyethylene glycol-based spacer, a biphenyltriazole moiety and an aminoindane-type D2R agonist pharmacophore
  Ki: 59 nM

Reference: publication PMC4963535, “Structure-guided development of heterodimer-selective GPCR ligands” (Nature Communications, 2016)
